Reference: ChEMBL document CHEMBL1152116, “Novel benzimidazole-4-carboxylic acid derivatives as potent and selective 5-HT3 receptor ligands” (Bioorg Med Chem Lett, 1996)

What was measured:
[1] = molecular target: 5-hydroxytryptamine receptor 4 (Rattus norvegicus, UniProt Q62758); test: Displacement of [3H]GR-113808 from rat striatum 5-hydroxytryptamine 4 receptor
[2] = molecular target: T1, Serotonin 3 (5-HT3) receptor (Rattus norvegicus, UniProt P35563+Q9JJ16); test: In vitro displacement of [3H]-LY 278584 from rat cerebral cortex 5-hydroxytryptamine 3 receptor; type: tissue-based
T1 sequence (P35563 whole entry): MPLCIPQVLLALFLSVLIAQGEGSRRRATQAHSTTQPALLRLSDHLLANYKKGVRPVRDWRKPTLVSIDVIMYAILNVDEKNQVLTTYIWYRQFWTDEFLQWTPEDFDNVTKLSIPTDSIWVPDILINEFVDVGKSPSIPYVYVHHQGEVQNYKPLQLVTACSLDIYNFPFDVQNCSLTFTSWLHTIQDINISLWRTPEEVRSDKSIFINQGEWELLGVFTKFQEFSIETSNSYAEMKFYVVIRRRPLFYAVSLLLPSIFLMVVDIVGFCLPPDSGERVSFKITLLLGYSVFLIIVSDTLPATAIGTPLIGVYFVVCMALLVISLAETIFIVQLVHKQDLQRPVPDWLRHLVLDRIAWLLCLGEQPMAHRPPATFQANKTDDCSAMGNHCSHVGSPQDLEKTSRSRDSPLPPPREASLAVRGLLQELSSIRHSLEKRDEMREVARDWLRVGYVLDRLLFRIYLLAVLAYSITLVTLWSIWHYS
T1 sequence (Q9JJ16 whole entry): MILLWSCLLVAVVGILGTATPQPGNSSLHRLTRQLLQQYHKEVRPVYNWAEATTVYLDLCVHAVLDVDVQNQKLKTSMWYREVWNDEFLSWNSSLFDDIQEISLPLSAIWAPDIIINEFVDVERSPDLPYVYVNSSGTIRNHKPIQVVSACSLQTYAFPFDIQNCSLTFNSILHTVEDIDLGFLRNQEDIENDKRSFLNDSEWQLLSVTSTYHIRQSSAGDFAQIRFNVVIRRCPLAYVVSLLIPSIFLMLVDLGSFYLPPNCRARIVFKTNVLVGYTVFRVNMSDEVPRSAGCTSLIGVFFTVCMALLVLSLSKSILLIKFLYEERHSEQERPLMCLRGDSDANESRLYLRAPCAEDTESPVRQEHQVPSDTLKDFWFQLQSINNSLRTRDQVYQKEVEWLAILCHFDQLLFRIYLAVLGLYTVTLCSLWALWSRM

Chain of 5-hydroxytryptamine receptor 4 (Q62758 whole entry): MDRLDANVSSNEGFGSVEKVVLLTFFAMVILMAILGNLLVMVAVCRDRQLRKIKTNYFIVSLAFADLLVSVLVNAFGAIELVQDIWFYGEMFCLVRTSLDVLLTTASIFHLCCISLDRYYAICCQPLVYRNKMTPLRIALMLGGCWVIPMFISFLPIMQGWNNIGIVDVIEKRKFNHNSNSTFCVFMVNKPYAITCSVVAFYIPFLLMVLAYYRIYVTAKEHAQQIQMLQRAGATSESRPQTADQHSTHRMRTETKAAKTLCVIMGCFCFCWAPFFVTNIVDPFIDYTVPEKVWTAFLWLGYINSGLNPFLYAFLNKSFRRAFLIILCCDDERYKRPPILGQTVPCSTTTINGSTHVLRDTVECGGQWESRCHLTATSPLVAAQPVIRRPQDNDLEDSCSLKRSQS

With `CN1C2CCCC1CC(NC(=O)c1cccc3[nH]cnc13)C2` (stereo not given) the Ki [1] was > 1 µM and the Ki [2] was 0.0061 µM.

In the case of `COc1cc(N)c(Cl)cc1C(=O)NC1CN2CCC1CC2` (stereo not given) [ZACOPRIDE], the Ki [1] is reported as 0.158 µM.

`O=C(NC1CN2CCC1CC2)c1cc(Cl)cc2nc[nH]c12` (stereo not given) gave a Ki [1] of 0.168 µM and a Ki [2] of 0.00029 µM.

Work on `CN1CCC(NC(=O)c2cccc3[nH]cnc23)CC1` yielded a Ki [1] of 0.719 µM and a Ki [2] of 0.145 µM.

For `O=C(NC1CN2CCC1CC2)c1cccc2nc[nH]c12` (stereo not given), the Ki [1] was > 1 µM and the Ki [2] was 0.0037 µM.

For `CN1CCC(NC(=O)c2cc(Cl)cc3[nH]cnc23)CC1`, the Ki [1] was 0.054 µM and the Ki [2] was 0.0295 µM.

For `CN1C2CCCC1CC(OC(=O)c1cccc3nc[nH]c13)C2` (stereo not given), the Ki [1] was > 10 µM and the Ki [2] was 0.129 µM.

In the case of `CN1C2CCCC1CC(NC(=O)c1cc(Cl)cc3nc[nH]c13)C2` (stereo not given), the Ki [1] is reported as 0.167 µM and the Ki [2] is reported as 0.154 µM.

`CN1[C@@H]2CC[C@H]1C[C@@H](OC(=O)c1c[nH]c3ccccc13)C2` [TROPISETRON] gave a Ki [1] of 0.063 µM.

`CN1CCC(OC(=O)c2cccc3nc[nH]c23)CC1` was tested, and the Ki [1] was > 10 µM and the Ki [2] was > 1 µM.

`CN1C2CCCC1CC(OC(=O)c1cc(Cl)cc3[nH]cnc13)C2` (stereo not given) was tested, and the Ki [1] was > 1 µM and the Ki [2] was 0.0049 µM.
